Columns and labels:
Assay type in all cases: cell-based, human
[1] = system: KRAS G12C mutant NCI-H358 cells; assay: Cell proliferation inhibition experiment, 3D spheroid, CellTiter-Glo, NCI-H358; details: Homo sapiens, NCI-H358, 120 h, NCI-H358 (KRAS G12C mutant) 3D spheroid, 5 days with compound, CellTiter-Glo; read-out: H358 IC50
Summary of the method: (§1)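 Luminescence (CellTiter-Glo, 30 min incubation) was read after 5 days of compound treatment of overnight-formed spheroids of 800 H358 or 400 A549 cells in 2% FBS medium. Inhibition relative to DMSO and blank controls was fitted with a four-parameter model to yield IC50.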

[2] = system: A549 cells (KRAS G12S mutant); assay: Cell proliferation inhibition experiment, 3D spheroid, CellTiter-Glo, A549; details: Homo sapiens, A549, 120 h, A549 (KRAS G12S mutant) 3D spheroid, 5 days with compound, CellTiter-Glo; read-out: A549 IC50
Summary of the method: as §1

[3] = system: KRAS G12C mutant MIA PaCa-2 cells; assay: Cell proliferation inhibition experiment, 3D spheroid, CellTiter-Glo, MIA PaCa-2; details: Homo sapiens, MIA PaCa-2, 120 h, 3D cell model in 384-well spheroid plate, 5 days, CellTiter-Glo; read-out: MIA-PaCa2 IC50
Summary of the method: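 200 MIA PaCa-2 cells/well grown overnight as 3D spheroids, then exposed to 3.16-fold compound dilutions (0.1% DMSO final) for 5 days. Viability read by CellTiter-Glo luminescence; inhibition calculated against DMSO and medium-only controls, and IC50 fitted by four-parameter model.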

Q: For C=CC(=O)N1CCN2C(=O)c3c(N4CC(O)CC4(C)C)nc(-c4ccccc4Cl)c(F)c3OC[C@H]2C1 (stereo partly drawn) [Z414-1, (6aR)-8-acryloyl-3-(2-chlorophenyl)-4-fluoro-1-(4-hydroxy-2,2-dimethylpyrrolidin-1-yl)-6,6a,7,8,9,10-hexahydro-12H-pyrazino[2,1-c]pyrido[3,4-f][1,4]oxazepin-12-one], which IC50 [1] is on record?
A: 19 nM

Q: And the IC50 [2]?
A: 8890 nM

Q: What about the IC50 [3] of the same molecule?
A: 126 nM

Q: C=CC(=O)N1CCN2C(=O)c3c(N4CCC[C@@H]4C)nc(-c4c(O)cccc4F)c(Cl)c3OC[C@H]2C1 [Z49, (6aR)-8-acryloyl-1-((S)-2-methylpyrrolidin-1-yl)-4-chloro-3-(2-fluoro-6-hydroxyphenyl)-6,6a,7,8,9,10-hexahydro-12H-pyrazino[2,1-c]pyrido[3,4-f][1,4]oxazepin-12-one] was tested. Which IC50 [1] did it give?
A: 4 nM

Q: And the IC50 [2]?
A: > 5000 nM

Q: What about the IC50 [3] of the same molecule?
A: 7 nM

Q: What does the source list for C=CC(=O)N1CCN2C(=O)c3c(N4C[C@H](N5CC(F)(F)C5)CC4(C)C)nc(-c4ccccc4F)c(Cl)c3OC[C@H]2C1 (single isomer, unassigned) [Z525-1]?
A: IC50 [1]: 281 nM; IC50 [2]: 2840 nM; IC50 [3]: 478 nM

Q: What does the source list for C=CC(=O)N1CCN2C(=O)c3c(OC4CCCN(C)C4)nc(-c4c(O)cccc4F)c(Cl)c3OC[C@H]2C1 (stereo partly drawn) [Z43, (6aR)-8-acryloyl-4-chloro-3-(2-fluoro-6-hydroxyphenyl)-1-((1-methylpiperidin-3-yl)oxy)-6,6a,7,8,9,10-hexahydro-12H-pyrazino[2,1-c]pyrido[3,4-f][1,4]oxazepin-12-one]?
A: IC50 [1]: 39 nM; IC50 [2]: > 30000 nM; IC50 [3]: 34 nM

Q: Which IC50 [1] does the source give for C=CC(=O)N1CCN2C(=O)c3c(N4C[C@H](N5CCN(C)CC5)CC4(C)C)nc(-c4c(F)cccc4Cl)c(Cl)c3OC[C@H]2C1 (single isomer, unassigned) [Z635-2] here?
A: 7 nM

Q: What about the IC50 [2] of the same molecule?
A: 2970 nM

Q: How did the IC50 [1] turn out when C=CC(=O)N1CCN2C(=O)c3c(N4C[C@@H](N5CCC5)CC4(C)C)nc(-c4ccccc4F)c(Cl)c3OC[C@H]2C1 (single isomer, unassigned) [Z471-1] was run?
A: 7 nM

Q: And the IC50 [2]?
A: 2770 nM

Q: What about the IC50 [3] of the same molecule?
A: 42 nM

Q: For C=CC(=O)N1CCN2C(=O)c3c(N4C[C@@H](C(=O)O)CC4(C)C)nc(-c4c(O)cccc4F)c(Cl)c3OC[C@H]2C1 (single isomer, unassigned) [Z458-1], which IC50 [1] is on record?
A: 189 nM

Q: And the IC50 [2]?
A: > 10000 nM

Q: What about the IC50 [3] of the same molecule?
A: > 1000 nM

Q: Which IC50 [1] does the source give for C=CC(=O)N1CCN2C(=O)c3c(N4C[C@@H](N(C)CCF)CC4(C)C)nc(-c4ccccc4F)c(Cl)c3OC[C@H]2C1 (single isomer, unassigned) [Z660-1] here?
A: 1.7 nM

Q: What about the IC50 [2] of the same molecule?
A: 3250 nM

Q: What about the IC50 [3] of the same molecule?
A: 7.7 nM

Q: Which results are given for C=CC(=O)N1CCN2C(=O)c3c(N4C[C@@H](C)N(C)C[C@@H]4C)nc(-c4ccccc4F)c(Cl)c3OC[C@H]2C1 [Z464]?
A: IC50 [1]: 144 nM; IC50 [3]: 179 nM

Q: How did the IC50 [1] turn out when C=CC(=O)N1CCN2C(=O)c3c(N4CC(N5CCN(C)CC5)CC4(C)C)nc(-c4ccccc4F)c(F)c3OC[C@H]2C1 (stereo partly drawn) [Z474, (6aR)-8-acryloyl-1-(2,2-dimethyl-4-(4-methylpiperazin-1-yl)pyrrolidin-1-yl)-4-fluoro-3-(2-fluorophenyl)-6,6a,7,8,9,10-hexahydro-12H-pyrazino[2,1-c]pyrido[3,4-f][1,4]oxazepin-12-one] was run?
A: 9 nM

Q: And the IC50 [2]?
A: 6700 nM

Q: And the IC50 [3]?
A: 17 nM

Q: How did the IC50 [1] turn out when C=CC(=O)N1CCN2C(=O)c3c(N4C[C@@H](NCC(F)(F)F)CC4(C)C)nc(-c4ccccc4F)c(Cl)c3OC[C@H]2C1 (single isomer, unassigned) [Z662-1] was run?
A: 3 nM

Q: And the IC50 [2]?
A: 4090 nM

Q: What about the IC50 [3] of the same molecule?
A: 11 nM

Q: Which IC50 [1] does the source give for C=CC(=O)N1CCN2C(=O)c3c(N4C[C@@H](N(C)CC(F)(F)F)CC4(C)C)nc(-c4ccccc4F)c(Cl)c3OC[C@H]2C1 (single isomer, unassigned) [Z491] here?
A: 1.4 nM

Q: And the IC50 [2]?
A: 4530 nM

Q: And the IC50 [3]?
A: 7 nM

Q: For C=CC(=O)N1CCN2C(=O)c3c(N4CCC(OC)C4(C)C)nc(-c4c(N)cccc4F)c(Cl)c3OC[C@H]2C1 (stereo partly drawn) [Z506, (6aR)-8-acryloyl-3-(2-amino-6-fluorophenyl)-4-chloro-1-(3-methoxy-2,2-dimethylpyrrolidin-1-yl)-6,6a,7,8,9,10-hexahydro-12H-pyrazino[2,1-c]pyrido[3,4-f][1,4]oxazepin-12-one], which IC50 [1] is on record?
A: 0.8 nM

Q: And the IC50 [2]?
A: 9190 nM

Q: And the IC50 [3]?
A: 2.2 nM

Q: With C=CC(=O)N1CCN2C(=O)c3c(N4CCN(C)[C@@H](C)[C@H]4C)nc(-c4ccccc4F)c(Cl)c3OC[C@H]2C1 (single isomer, unassigned) [Z465-1] as the molecule, how does the IC50 [1] read?
A: 13 nM

Q: How did the IC50 [1] turn out when C=CC(=O)N1CCN2C(=O)c3c(N4CC(N(C)C)CC4(C)C)nc(-c4cccc(F)c4F)c(Cl)c3OC[C@H]2C1 (single isomer, unassigned) [Z473-2] was run?
A: 12 nM

Q: And the IC50 [3]?
A: 45 nM

Q: How did the IC50 [1] turn out when C=CC(=O)N1CCN2C(=O)c3c(N4C[C@@H](O)CC4(C)C)nc(-c4c(N)cccc4F)c(F)c3OC[C@H]2C1 [Z481, (6aR)-8-acryloyl-3-(2-amino-6-fluorophenyl)-4-fluoro-1-((S)-4-hydroxy-2,2-dimethylpyrrolidin-1-yl)-6,6a,7,8,9,10-hexahydro-12H-pyrazino[2,1-c]pyrido[3,4-f][1,4]oxazepin-12-one] was run?
A: 3.2 nM

Q: What about the IC50 [3] of the same molecule?
A: 4 nM

Q: C=CC(=O)N1CCN2C(=O)c3c(N4CCN(C)C[C@@H]4C)nc(-c4c(N)cccc4F)c(Cl)c3OC[C@H]2C1 [Z503, (6aR)-8-acryloyl-3-(2-amino-6-fluorophenyl)-4-chloro-1-((S)-2,4-dimethylpiperazin-1-yl)-6,6a,7,8,9,10-hexahydro-12H-pyrazino[2,1-c]pyrido[3,4-f][1,4]oxazepin-12-one] was tested. Which IC50 [1] did it give?
A: 9.5 nM

Q: What about the IC50 [3] of the same molecule?
A: 7 nM

Q: What does the source list for C=CC(=O)N1CCN2C(=O)c3c(N4C[C@@H](N5CC(OC)C5)CC4(C)C)nc(-c4ccccc4F)c(Cl)c3OC[C@H]2C1 [Z479-1, (R)-8-acryloyl-4-chloro-3-(2-fluorophenyl)-1-((S)-4-(3-methoxyazetidin-1-yl)-2,2-dimethylpyrrolidin-1-yl)-6,6a,7,8,9,10-hexahydro-12H-pyrazino[2,1-c]pyrido[3,4-f][1,4]oxazepin-12-one]?
A: IC50 [1]: 5.7 nM; IC50 [3]: 15 nM

Q: C=CC(=O)N1CCN2C(=O)c3c(N4CC(N5CCN(C)CC5)CC4(C)C)nc(-c4c(O)cccc4F)c(Cl)c3OC[C@H]2C1 (stereo partly drawn) [Z467, (6aR)-8-acryloyl-4-chloro-1-(2,2-dimethyl-4-(4-methylpiperazin-1-yl)pyrrolidin-1-yl)-3-(2-fluoro-6-hydroxyphenyl)-6,6a,7,8,9,10-hexahydro-12H-pyrazino[2,1-c]pyrido[3,4-f][1,4]oxazepin-12-one] was tested. Which IC50 [1] did it give?
A: 0.8 nM

Q: And the IC50 [3]?
A: 1 nM

Q: With C=CC(=O)N1CCN2C(=O)c3c(N4C[C@@H](N5CCN(C)CC5)CC4(C)C)nc(-c4c(F)cccc4Cl)c(Cl)c3OC[C@H]2C1 (single isomer, unassigned) [Z635-1] as the molecule, how does the IC50 [1] read?
A: 0.8 nM

Q: What about the IC50 [2] of the same molecule?
A: 2280 nM

Q: With C=CC(=O)N1CCN2C(=O)c3c(N4C[C@H](N5CCC5)CC4(C)C)nc(-c4ccccc4F)c(Cl)c3OC[C@H]2C1 (single isomer, unassigned) [Z471-2] as the molecule, how does the IC50 [1] read?
A: 91 nM

Q: C=CC(=O)N1CCN2C(=O)c3c(N4CCN(C)C[C@@H]4C)nc(-c4ccccc4Cl)c(Cl)c3OC[C@H]2C1 [Z461, (R)-8-acryloyl-4-chloro-3-(2-chlorophenyl)-1-((S)-2,4-dimethylpiperazin-1-yl)-6,6a,7,8,9,10-hexahydro-12H-pyrazino[2,1-c]pyrido[3,4-f][1,4]oxazepin-12-one] was tested. Which IC50 [1] did it give?
A: 24 nM

Q: What about the IC50 [3] of the same molecule?
A: 33 nM

Q: How did the IC50 [1] turn out when C=CC(=O)N1CCN2C(=O)c3c(N4C[C@@H](N(C)CCO)CC4(C)C)nc(-c4ccccc4F)c(Cl)c3OC[C@H]2C1 (single isomer, unassigned) [Z658-1] was run?
A: 1 nM

Q: What about the IC50 [2] of the same molecule?
A: 2970 nM

Q: How did the IC50 [1] turn out when C=CC(=O)N1CCN2C(=O)c3c(N4C[C@H](N5CCN(C)CC5)C[C@@H]4C)nc(-c4ccccc4F)c(Cl)c3OC[C@H]2C1 [Z470-1] was run?
A: 23 nM

Q: What about the IC50 [3] of the same molecule?
A: 43 nM

Q: C=CC(=O)N1CCN2C(=O)c3c(N4CCN(C(=O)CC)C[C@@H]4C)nc(-c4ccccc4F)c(Cl)c3OC[C@H]2C1 [Z477, (R)-8-acryloyl-4-chloro-3-(2-fluorophenyl)-1-((S)-2-methyl-4-propionylpiperazin-1-yl)-6,6a,7,8,9,10-hexahydro-12H-pyrazino[2,1-c]pyrido[3,4-f][1,4]oxazepin-12(6aH)-one] was tested. Which IC50 [1] did it give?
A: 8.1 nM

Q: Which IC50 [1] does the source give for C=CC(=O)N1CCN2C(=O)c3c(N4CC[C@@H](N(C)C)C4(C)C)nc(-c4ccccc4F)c(Cl)c3OC[C@H]2C1 [Z502-1, (6aR)-8-acryloyl-4-chloro-1-(3-(dimethylamino)-2,2-dimethylpyrrolidin-1-yl)-3-(2-fluorophenyl)-6,6a,7,8,9,10-hexahydro-12H-pyrazino[2,1-c]pyrido[3,4-f][1,4]oxazepin-12(6aH)-one] here?
A: 29.6 nM

Q: For C=CC(=O)N1CCN2C(=O)c3c(N4CCN(C)C[C@@H]4C)nc(C#CC)c(Cl)c3OC[C@H]2C1 [Z459, (R)-8-acryloyl-4-chloro-1-((S)-2,4-dimethylpiperazin-1-yl)-3-(prop-1-yn-1-yl)-6,6a,7,8,9,10-hexahydro-12H-pyrazino[2,1-c]pyrido[3,4-f][1,4]oxazepin-12-one], which IC50 [1] is on record?
A: 906 nM

Q: What about the IC50 [3] of the same molecule?
A: > 1000 nM

Q: Which IC50 [1] does the source give for C=CC(=O)N1CCN2C(=O)c3c(N4C[C@@H](N(C)C)CC4(C)C)nc(-c4cccc(F)c4F)c(Cl)c3OC[C@H]2C1 [Z473-1, (R)-8-acryloyl-4-chloro-3-(2,3-difluorophenyl)-1-((S)-4-(dimethylamino)-2,2-dimethylpyrrolidin-1-yl)-6,6a,7,8,9,10-hexahydro-12H-pyrazino[2,1-c]pyrido[3,4-f][1,4]oxazepin-12-one] here?
A: 22 nM

Source: patent US20230203060A1 (GENFLEET THERAPEUTICS (SHANGHAI) INC., priority 2020, published 2023)
